Common to all, as to assay type: cell-based
Test [1] concerns U87-CXCR4 + cells. The test is described as follows: Cell membrane binding and internalisation assay. As to the method: In the saturation binding assays, U87-CXCR4 + cells were seeded in 24-well plates and allowed to adhere. The night before the experiment, complete media was replaced with media containing 2% FBS. To determine the total binding, cells were treated with a mixture of each radiolabelled peptide (at final concentrations ranging from 0.1 to 1000 nM, corresponding to activity concentrations ranging from 0.005 to 50 MBq/mL) with 0.2% dimethyl sulfoxide (DMSO, vehicle). Non-specific binding (NSB) was verified by treating cells with a mixture of each radiolabelled peptide with 100 µM of AMD11070, a potent CXCR4 antagonist.
After 4 h of incubation at 37 °C and 5% CO2, the unbound fraction was collected in gamma counter tubes, and the cells were washed twice with PBS. The wash fractions were added to the same gamma counter tubes. Next, cells were lysed by incubation with 1 M NaOH for 30 min at room temperature (RT). After collecting the lysed cell fractions, two washes with 1 M NaOH were performed, and added to the same fractions, corresponding to the total bound fractions.
For the internalisation assay, 1 and 100 nM of the radiolabelled peptides were used. The membrane-bound fraction was separated from the internalised fraction by a 10 min incubation at RT with a stripping buffer of 50 mM glycine and 100 mM NaCl, pH 2.8. This was followed by lysis with 1 M NaOH as described above.
The activities of all collected fractions were measured in an automated gamma counter. Activity measurements were converted to % added activity (%AA) and normalised for cell counts. A standard curve, obtained by measuring the treatment solutions, was used to convert the activity concentration to moles.

The test system of test [2] is U87-CXCR4 + cells. As to the kind of experiment: MTS cell viability assay. As to conditions: for cell viability: % of vehicle, mean ± SD. The procedure: Cell viability assays were performed using increasing activity concentrations of the radiolabelled peptides (1 to 20 MBq/mL), incubated with U87-CXC4 + cells for four hours at 37 °C, 5% CO2. After the incubation period, cells were washed twice with PBS and replenished with complete media. After five and seven days of treatment, the cell media was removed and MTS (3-(4,5-dimethylthiazol-2-yl)-5-(3-carboxymethoxyphenyl)-2-(4-sulfophenyl)-2 H-tetrazolium) reagent added, prepared according to manufacturer’s instructions (CellTiter 96® AQueous One Solution Cell Proliferation Assay, Promega, Wisconsin, United States). To determine the effect of the radiation originating from unbound radiolabelled peptides, cells were treated with equivalent activity concentrations of [^177Lu]Lu-DTPA. Triton X-100 (0.1%) was used as a positive control. Vehicle includes the NaOAc radiolabeling buffer at the concentration used for the 20 MBq/mL peptide solutions. The cells were incubated for 0.5–1 h with the MTS reagent at 37 °C, 5% CO2. Absorbance was measured at 490 nm using a BioTek Synergy H1 plate reader (Agilent Technologies, Mechelen, Belgium). Cell viability was normalised to the vehicle and calculated as percentage of cell viability.
(Formazan colour is commonly taken as a measure of viable cells.)

Test [3] concerns U87-CXCR4 + cells. The test is described as follows: Apoptosis live cell imaging (Annexin V, Caspase 3/7; IncuCyte). The following applies: day 5, 4 h, normalised to confluence and vehicle, N = 2. The procedure:
Apoptosis was measured using the IncuCyte® Zoom system (Essen Bioscience, Hertfordshire, UK).
Briefly, cells were seeded in 96-well plates, and left to attach overnight at 37 °C, 5% CO2. Next, cells were treated with different activity concentrations of [^177Lu]Lu-DOTA-POL3026 or [^177Lu]Lu-DTPA, ranging from 1 to 20 MBq/mL. After four hours of incubation at 37 °C and 5% CO2, cells were washed twice with PBS. The Sartorius™ IncuCyte® dyes Caspase 3/7 green reagent and Annexin V red reagent were added at 1/2000 and 1/200 dilutions, respectively. Images were analysed using the IncuCyte® Zoom software. The average values of Green Calibrated Unit GCU x µm² (for Caspase 3/7) and Red Calibrated Units RCU x µm² (for Annexin V) signal were normalised to cell confluence percentages, five and seven days after treatment. Vehicle includes the NaOAc radiolabeling buffer at the concentration used for the 20 MBq/mL peptide solutions.

Test [4] relates to U87-CXCR4 + cells. As to the kind of experiment: DNA damage immunofluorescence (yH2AX / 53BP1). The procedure: DNA damage in U87-CXCR4 + cells was detected by immunofluorescent staining of the DNA damage and repair proteins, phospho-H2A histone family member X (yH2Ax) and p53-binding protein 1 (53BP1). Briefly, cells were seeded in 96-well plates and left overnight to adhere at 37 °C, 5% CO2. Next, cells were treated with different activity concentrations of [^177Lu]Lu-DOTA-POL3026 or [^177Lu]Lu-DTPA, ranging from 1 to 20 MBq/mL. After four hours of incubation, cells were washed twice with PBS, replenished with fresh media, and left at 37 °C, 5% CO2 until the fixation time point. For fixation, cells were washed with PBS, and fixed by incubating them with 4% paraformaldehyde (PFA) for 15 min at RT. This was done 0, 24 and 120 h after treatment. Cells were washed twice with PBS and stored in PBS at 4 °C until the residual radioactivity in the plate decayed. The vehicle includes the NaOAc radiolabeling buffer at the concentration used for the 20 MBq/mL peptide solutions.
After decay storage, yH2Ax/53BP1 double staining was performed using the following protocol. First, cells were washed once with PBS-glycine and then permeabilised by washing them for 10 min with PBS-Triton X-100. […]
Cells were imaged at 40x magnification using a BioTek Cytation 5 (Agilent Technologies, Mechelen, Belgium), where 4 fields were imaged per well, ensuring that at least a hundred cells were counted per condition. […]

The cell viability is the share of living cells, or the viability signal relative to a control.

Structures are written as SMILES. Where a SMILES comes first, the peptide text is derived from it. Bridges are numbered along the chain shown (N, C = ends). Roman numbers before positions name the chains, in order. [ ]: non-standard residue; d: D form. The star is where a group is joined. DOTA = O=C(O)CN1CCN(CC(=O)O)CCN(CC(=O)*)CCN(CC(=O)O)CC1

For the compound `CC(C)C[C@@H](N)C(=O)NCC(=O)N[C@H](C)C(=O)N[C@H](CO)C(=O)N[C@H](Cc1c[nH]c2ccccc12)C(=O)N[C@H](Cc1c[nH]cn1)C(=O)N[C@H](CCCNC(=N)N)C(=O)N1CCC[C@@H]1C(=O)N[C@H](CC(=O)O)C(=O)N[C@H](CCCCNC(=O)CN1CCN(CC(=O)O)CCN(CC(=O)O)CCN(CC(=O)O)CC1)C(=O)NCCCC[C@@H](NC(=O)[C@H]1CCCN1C(=O)[C@@H](CC(C)C)NC(=O)[C@H]1CCCN1C(=O)[C@@H](CCCNC(=N)N)NC(=O)[C@@H](CCCCN)NC(=O)[C@@H](CCC(N)=O)NC(=O)[C@@H](Cc1ccc(O)cc1)NC(=O)CNC(=O)[C@@H](CC(C)C)NC(=O)[C@@H](CS)NC(=O)[C@@H](CS)NC(=O)[C@@H](CCCCN)NC(=O)[C@@H](CC(=O)O)NC(=O)[C@H]1CCCN1C(=O)[C@@H](CCCNC(=N)N)NC(=O)[C@@H](Cc1c[nH]cn1)NC(=O)[C@@H](Cc1c[nH]c2ccccc12)NC(=O)[C@@H](CO)NC(=O)[C@@H](C)NC(=O)CNC(=O)[C@H](N)CC(C)C)C(N)=O` [[^177Lu]Lu-DOTA-DV1-K-DV3, metal not drawn] (I: H-[dL]G[dA][dS][dW][dH][dR][dP][dD][dK][dC][dC][dL]G[dY][dQ][dK][dR][dP][dL][dP][dK]-NH2 / II: H-[dL]G[dA][dS][dW][dH][dR][dP][dD][dK](DOTA); amide I:22-II:C; N-terminus and C-terminus assumed), the “added activity bound to the cell membrane” value in the test on U87-CXCR4 + cells [1] (1 nM, 4 h, 37 °C, glycine stripping buffer pH 2.8, mean ± SD, N = 2) is “less than 1 %AA”. The added activity internalised in the test on U87-CXCR4 + cells [1] (1 nM, 4 h, 37 °C, mean ± SD, N = 2) was 0.2 ± 0.02 %AA. Further, the “reduction of binding in presence of 100 µM AMD11070 (specific binding)” value in the test on U87-CXCR4 + cells [1] (1 nM, stated after the internalised fractions) is reported as “negligible”. Also, the “change of uptake (%AA) at 100 nM compared with 1 nM” value in the test on U87-CXCR4 + cells [1] (incubation concentration 100 nM) is on record as “did not significantly increase”.
In the case of `O=C([O-])CN(CCN(CC(=O)[O-])CC(=O)[O-])CCN(CC(=O)[O-])CC(=O)[O-].[177Lu+3]` [[^177Lu]Lu-DTPA], the cell viability in the test on U87-CXCR4 + cells [2] (1 MBq/mL, day not stated in the sentence (follows the day 7 statement)) is given as 90.9 ± 7.8%; with U87-CXCR4 + cells [2] (day 5, 20 MBq/mL, 4 h incubation, N = 3–4), 50.2 ± 10.4%. Besides, the “effect on cell viability” value with U87-CXCR4 + cells [2] (day 7, 2 to 20 MBq/mL) is listed as “statistically-significant reduction”. The “Annexin V signal” value in the test on U87-CXCR4 + cells [3] (1 MBq/mL) amounted to 1.4 ± 0.8 times the vehicle; in the test with U87-CXCR4 + cells [3] (10 MBq/mL) it was 3.3 ± 3.3 times the vehicle. For the same compound, in the test with U87-CXCR4 + cells [4] (any of the activity concentrations (1–20 MBq/mL)), the “increase of yH2AX” value is reported as “did not result in an increase”. The “increase in 53BP1” value with U87-CXCR4 + cells [4] (any timepoint (0 h, 1 day, 5 days) after treatment) is “No statistically-significant increase”.

Source of the values: publication PMC11250742, “Preclinical evaluation of CXCR4 peptides for targeted radionuclide therapy in glioblastoma” (EJNMMI Radiopharmacy and Chemistry, 2024).
